In US11440903B2, “Salt form and crystal form of compound as FGFR4 inhibitor and preparation method thereof” (GUANGDONG ZHONGSHENG PHARMACEUTICAL CO., LTD, priority 2017, dated 2022):

Experiments:
Type in all cases: physicochemical
[1] = Solid stability test of the crystal forms (influence factors and acceleration tests; appearance, XRPD, HPLC content and impurities)
Excerpt: A sample of the crystal form A was placed on the bottom of a glass sample bottle, and spread to a thin layer. The sample stored under high temperature, high humidity, and acceleration conditions was placed in a bottle of which the mouth was packed with a pierced aluminum foil to ensure the sample to be sufficiently exposed to ambient air; the sample stored under light radiation conditions was placed at room temperature in a standing bottle of which the mouth was open, the sample was exposed to a light resource, and sampled for detection after being radiated by sufficient energy. Samples were taken and analyzed at various time points, and the test results were compared with the initial test results of 0 day, the inspection items included appearance, content and impurities, and the test results are shown in Table 9.
A sample of the crystal form B (10 mg) was placed on the bottom of a glass sample bottle, and spread to a thin layer. The sample stored under high temperature, high humidity, and acceleration conditions were placed in a bottle of which the mouth was packed with a pierced aluminum foil to ensure the sample to be sufficiently exposed to ambient air; the sample stored under light radiation conditions was placed at room temperature in a standing bottle of which the mouth was open, the sample was exposed to a light resource, and sampled for detection after being radiated by sufficient energy, the control sample stored in dark (open, the whole sample bottle was sealed with aluminum foil to keep the content in dark) and the sample stored under light radiation conditions were placed together to exclude environmental influence on the samples. Samples were taken and analyzed at various time points, and the test results were compared with the initial test results of 0 day, the inspection items included appearance, crystal form, content and impurities, the test results are shown in Table 10.
(§1) A sample of the crystal form C was taken and placed on the bottom of a glass sample bottle, and spread to a thin layer. The sample stored under high temperature, high humidity, and acceleration conditions was placed in a bottle of which the mouth was packed with a pierced aluminum foil to ensure the sample to be sufficiently exposed to ambient air; the sample stored under light radiation conditions was placed at room temperature in a standing bottle of which the mouth was open, the sample was exposed to a light resource, and sampled for detection after being radiated by sufficient energy. Samples were taken and analyzed at various time points, and the test results were compared with the initial test results of 0 day.
as §1, with “D” for “C”
A sample of the crystal form E (10 mg) was taken and placed on the bottom of a glass sample bottle, and spread to a thin layer. […]

[2] = Stability of the crystal form on stirring as suspension in solvent (40° C., 2 days)
Method: 30 mg of the compound represented by formula (I) was weighed and added into a glass flask, 400 μL acetonitrile-water (1:1) was added to form a suspension. A sample of the suspension was placed on a magnetic stirrer (40° C.) for a dark stirring experiment. The sample of the suspension was centrifuged after stirring at 40° C. for 2 days, and then the residual sample was dried in a vacuum drying oven (30° C.) overnight to give a crystal form A of the compound represented by formula (I). The XRPD pattern of the crystal form A of the compound represented by formula (I) is shown in FIG. 1, the DSC pattern is shown in FIG. 2, and the TGA pattern is shown in FIG. 3.
30 mg of the compound represented by formula (I) was weighed and added into a glass flask, and 400 μL ethyl acetate was added to form a suspension. A sample of the suspension was placed on a magnetic stirrer (40° C.) for dark stirring experiment. The sample of the suspension was centrifuged after stirring at 40° C. for 2 days, and then the residual sample was dried in a vacuum drying oven (30° C.) overnight. The crystal form was detected by XRPD to give a crystal form A of the compound represented by formula (I).
30 mg of the compound represented by formula (I) was weighed and added into a glass flask, and 400 μL methanol was added to form a suspension. A sample of the suspension was placed on a magnetic stirrer (40° C.) for dark stirring experiment. The sample of the suspension was centrifuged after stirring at 40° C. for 2 days, and then the residual sample was dried in a vacuum drying oven (30° C.) overnight to give a crystal form B of the compound represented by formula (I). The XRPD pattern of the crystal form B of the compound represented by formula (I) is shown in FIG. 4, the DSC pattern is shown in FIG. 5, and the TGA pattern is shown in FIG. 6.
50 mg of the compound represented by formula (I) was weighed and added into a 1.5 mL liquid vial, and 200 μL methanol was added thereto, the obtained mixture was homogeneously mixed under ultrasound. The dissolved sample was quickly centrifuged, and the supernatant was placed in a centrifuge tube, the mouth of the tube was packed with a pierced aluminum foil, and then the tube was placed in a fume cupboard for volatilization; the sample of the suspension was placed on a magnetic stirring heater (40° C.) for stirring (in dark), and quickly centrifuged after 2 days. The resultant solid was collected and dried at 30° C. in a vacuum drying oven overnight to give the crystal form C of the compound represented by formula (I). The XRPD pattern of the crystal form C of the compound represented by formula (I) is shown in FIG. 7, the DSC pattern is shown in FIG. 8, and the TGA pattern is shown in FIG. 9.
50 mg of the compound represented by formula (I) was weighed and added into a 1.5 mL liquid vial, and 200 μL ethanol was added thereto, and the obtained mixture was homogeneously mixed under ultrasound. The dissolved sample was quickly centrifuged, the supernatant was placed into a centrifuge tube, and the mouth of the tube was packed with a pierced aluminum foil, and placed in a fume cupboard for volatilization; the sample of the suspension was placed on a magnetic stirring heater (40° C.) for stirring (in dark), and quickly centrifuged after 2 days. The solid obtained as above was collected and dried at 30° C. in a vacuum drying oven overnight to give a crystal form D of the compound represented by formula (I). The XRPD pattern of the crystal form D of the compound represented by formula (I) is shown in FIG. 10, the DSC pattern is shown in FIG. 11, and the TGA pattern is shown in FIG. 12.
35 mg of the compound represented by formula (II) was weighed and added into a 1.5 mL liquid vial, and 400 μL methanol was added thereto, and the obtained mixture was homogeneously mixed under ultrasound. […]

[3] = Solubility test in biological media (FaSSIF, FeSSIF, SGF) and water, 37° C.; conditions: SGF and fasting or satiety state simulated intestinal fluid
Method: Step 1: Preparation of Control Solutions (0.2 mg/mL, calculated by free base)
2 mg the crystal form B of the compound represented by formula (I) (or 2.4 mg the crystal form E of the compound represented by formula (II)) as a control was precisely weighed and placed into a 40 mL glass vial, and a diluent (10 mL) was precisely added. The reaction solution was subjected to ultrasonic treatment for 20 min to sufficiently dissolve, then cooled to room temperature and shaked well. Two control solutions (STD #1, STD #2) were formulated in accordance with this method.
Step 2: Preparation of Linear Solutions
The control solution STD #1 of the crystal form B of the compound represented by formula (I) was 1×, 10×, 100×, 1000× and 2000× (free base LOQ) diluted, and designated as the linear solutions L1, L2, L3, L4 and L5; the control solution STD #1 of the crystal form E of the compound represented by formula (II) was 1×, 10×, 100× and 1000× (methanesulfonate LOQ) diluted, and designated as the linear solutions L1, L2, L3, L4.
Step 3: Solubility Test of the crystal form B of the compound represented by formula (I), the crystal form G of the compound represented by formula (III) and the crystal form E of the compound represented by formula (II) in biological media and water
4 samples (about 4 mg) of each of the crystal form B of the compound represented by formula (I), the crystal form E of the compound represented by formula (II), and the crystal form G of the compound represented by formula (III) were added into 12 glass vials (4 mL), respectively, and then 2 mL different biological media (FaSSIF, FeSSIF, SGF) and water were added into each compound respectively, then mixed homogeneously to form a suspension. The suspension was detected for its initial pH value. A magnet was added into the suspension, and placed on a magnetic stirring heater for stirring (at a temperature of 37° C., in dark). After stirring for 24 h, a sample was taken. The taken sample was quickly centrifuged, and the residual solid was detected by XRPD. The supernatant was detected for its pH value and diluted with a diluent into appropriate multiple, then measured with HPLC for its concentration.
FaSSIF: 1. 0.042 g sodium hydroxide, 0.3438 g sodium dihydrogen phosphate and 0.6186 g sodium chloride were weighed, added into 90 mL purified water, and homogeneously mixed, then, the mixture was adjusted with 1 N hydrochloric acid or 1 N sodium hydroxide to pH=6.5, and diluted into a constant volume of 100 mL with purified water; 2. 50 mL of the buffer described above was taken, and 0.224 g commercially available powder (Biorelevant.com) of FaSSIF/FeSSIF/FaSSGF was added thereto, the mixture was stirred to dissolve, and diluted with purified water to a constant volume of 100 mL.
FeSSIF: 1. 0.404 g sodium hydroxide, 0.865 g glacial acetic acid, and 1.1874 g sodium chloride were weighed, added into 90 mL purified water, and homogeneously mixed, then, the mixture was adjusted with 1 N hydrochloric acid or 1 N sodium hydroxide to pH=5.0, and diluted with purified water to a constant volume of 100 mL, 2. 50 mL of the buffer described above was taken, and 1.12 g commercially available powder (Biorelevant.com) of FaSSIF/FeSSIF/FaSSGF was added thereto, the mixture was stirred to dissolve, and diluted with purified water to a constant volume of 100 mL.
FaSSGF (SGF): 1. 0.2 g sodium chloride was weighed, added into 90 mL purified water, and mixed homogeneously, the mixture was adjusted with 1 N hydrochloric acid to pH=1.8, and diluted with purified water to a constant volume of 100 mL, and stood at room temperature.

[4] = Acceleration test (40° C./relative humidity of 75%, open), 5 days
[5] = Acceleration test (40° C./relative humidity of 75%, open), 10 days
[6] = High humidity (room temperature/relative humidity of 92.5%, open), 5 days
[7] = High humidity (room temperature/relative humidity of 92.5%, open), 10 days
[8] = High temperature (60° C., open), 5 days
[9] = High temperature (60° C., open), 10 days
[10] = Light radiation (total illumination: 1.2 × 10^6 Lux·hr), 5 days
[11] = Light radiation (total illumination: 1.2 × 10^6 Lux·hr), 10 days
[12] = conclusion of influence factors and acceleration tests

Appearance ([1]; 0 day (initial))	Content (%) ([1]; 0 day (initial))	Total Impurities (%) ([1]; 0 day (initial))	Appearance [1, 4]	Appearance [1, 5]	Content (%) [1, 5] [%]	Total Impurities (%) [1, 5] [%]	Appearance [1, 6]	Appearance [1, 7]	Content (%) [1, 7] [%]	Total Impurities (%) [1, 7] [%]	Appearance [1, 8]	Appearance [1, 9]	Content (%) [1, 9] [%]	Total Impurities (%) [1, 9] [%]	Appearance [1, 10]	Appearance [1, 11]	Content (%) [1, 11] [%]	Total Impurities (%) [1, 11] [%]	stability under acceleration conditions, conclusion in words [1, 12]	other results	SMILES
Off-white	99.11	1.12	Off-white	Off-white	98.98	1.18	Off-white	Off-white	98.85	1.22	Off-white	Off-white	99.06	1.18	Off-white	Off-white	99.13	1.10	relatively good	photostability (stability under light radiation), conclusion in words [1, 12]: relatively good; stability under high humidity conditions, conclusion in words [1, 12]: slightly less stability; thermal stability (high temperature), conclusion in words [1, 12]: relatively good; stability in the acetonitrile-water solution ([2]; stirring in acetonitrile-water (1:1) at 40° C. for 2 days): substantially high stability; stability in the ethyl acetate solution ([2]; stirring in ethyl acetate at 40° C. for 2 days): substantially high stability	C=CC(=O)N[C@H]1COC[C@H]1Nc1ncc(/C=C(\F)c2c(Cl)c(OC)cc(OC)c2Cl)cn1 [Crystal Form A]
Off-white	98.96	1.25	Off-white	Off-white	98.96	1.26	Off-white	Off-white	98.22	2.08	Off-white	Off-white	98.93	1.27	Off-white	Off-white	98.35	1.86	good	Crystal Form (XRPD) ([1]; 0 day (initial)): form C; Crystal Form (XRPD) [1, 5]: form C; Crystal Form (XRPD) [1, 7]: form C; Crystal Form (XRPD) [1, 9]: form C; Crystal Form (XRPD) [1, 11]: form C; thermal stability (high temperature), conclusion in words [1, 12]: good; stability in the methanol solution ([2]; stirring in methanol at 40° C. for 2 days): substantially high stability	C=CC(=O)N[C@H]1COC[C@H]1Nc1ncc(/C=C(\F)c2c(Cl)c(OC)cc(OC)c2Cl)cn1 [Crystal Form C]
																				solubility in simulated gastric fluid (SGF) and simulated intestinal fluid (FaSSIF), in words [3]: relatively good solubility	C=CC(=O)N[C@H]1COC[C@H]1Nc1ncc(/C=C(\F)c2c(Cl)c(OC)cc(OC)c2Cl)cn1.CS(=O)(=O)O [compound represented by formula (II)]
																				solubility in simulated gastric fluid (SGF) and simulated intestinal fluid (FaSSIF), in words [3]: relatively good solubility	C=CC(=O)N[C@H]1COC[C@H]1Nc1ncc(/C=C(\F)c2c(Cl)c(OC)cc(OC)c2Cl)cn1.O=S(=O)(O)O [compound represented by formula (III)]
